This is an account of results in ChEMBL document CHEMBL5046293 (J Med Chem, 2022).

Each structure is given as a SMILES string.

A short description of data set [1]: Cytotoxicity against human BLEC monolayers at 50 uM incubated for 1 hr. The format is toxicity, cell-based. As to conditions: brain-like endothelial cells.
Data set [2] is described as follows: Stability of compound in 0.01 M PBS buffer at 50 uM measured after 4 hrs by LC-MS analysis (reference value: 98.7 %). As to conditions: read-out: Stability. It is filed as physicochemical.
A short description of data set [3]: Stability of compound in 0.01 M PBS buffer at 50 uM measured after 52 hrs by LC-MS analysis (reference value: 98.7 %). The format is physicochemical. As to conditions: read-out: Stability.
Data set [4] is described as follows: Stability of compound in 0.01 M PBS buffer at 50 uM measured after 4 hrs by LC-MS analysis (reference value: 99.2 %). It is filed as physicochemical. As to conditions: read-out: Stability.
Data set [5] can be described thus: Stability of compound in 0.01 M PBS buffer at 50 uM measured after 52 hrs by LC-MS analysis (reference value: 99.2 %). It is filed as physicochemical. As to conditions: read-out: Stability.

Turning to `OC[C@H]1O[C@@H](OCCCCc2cn(CCCCc3ccc(O)c(/C=N/O)n3)nn2)[C@H](O)[C@@H](O)[C@@H]1O`, the Activity result in data set [1] is given as “Non-Toxic”.
On the same count and under the same terms, with `C#CCCCCO[C@H]1O[C@H](CO)[C@@H](O)[C@H]1O` the entry was “Non-Toxic”; with `Cn1cc(CCCCO[C@@H]2O[C@H](CO)[C@@H](O)[C@H]2O)nn1`, “Non-Toxic”.
For the compound `Cn1cc(CCCCO[C@@H]2O[C@H](CO)[C@@H](O)[C@H](O)[C@H]2O)nn1`, in data set [1], the Activity entry is reported as “Non-Toxic”.
In the case of `C#CCCCCO[C@@H]1O[C@H](CO)[C@@H](O)[C@H]1O`, the Activity entry in data set [1] is listed as “Non-Toxic”.
Consider `OC[C@H]1O[C@@H](OCCCCCc2ccc(O)c(/C=N/O)n2)[C@H](O)[C@@H]1O`, for which the Activity entry in data set [1] is reported as “Non-Toxic”.
The same measure, in the same setting: with `C#CCCO[C@@H]1O[C@H](CO)[C@@H](O)[C@H](O)[C@H]1O` the entry was “Non-Toxic”; with `Cn1cc(CCCCO[C@H]2O[C@H](CO)[C@@H](O)[C@H](O)[C@H]2O)nn1`, “Non-Toxic”; with `Cn1cc(CCCCOC[C@H]2O[C@@H](O)[C@H](O)[C@@H](O)[C@@H]2O)nn1`, “Non-Toxic”.
As to `OC[C@H]1O[C@@H](OCCCc2ccc(O)c(/C=N/O)n2)[C@H](O)[C@@H](O)[C@@H]1O`, the remaining at 4 h, 50 µM in data set [2] came to 97.8%. The remaining at 52 h, 50 µM in data set [3] came to 91.4%. The Activity result in data set [1] was “Non-Toxic”.
For the compound `OC[C@H]1O[C@@H](OCCCCc2cn(CCCCc3ccc(O)c(/C=N/O)n3)nn2)[C@H](O)[C@@H]1O`, in data set [1], the Activity entry is “Non-Toxic”.
Still for that read-out and setting: with `OC[C@H]1O[C@@H](OCCCCc2ccc(O)c(/C=N/O)n2)[C@H](O)[C@@H](O)[C@@H]1O` the entry was “Non-Toxic”.
Still for that read-out and setting: with `C#CCCCCO[C@@H]1O[C@H](CO)[C@@H](O)[C@H](O)[C@H]1O` the entry was “Non-Toxic”.
With `OC[C@H]1O[C@@H](OCCCCc2cn(CCCc3ccc(O)c(/C=N/O)n3)nn2)[C@H](O)[C@@H](O)[C@@H]1O`, the remaining at 4 h, 50 µM in data set [4] turned out to be 96.7%. For the same compound, in data set [5], the remaining at 52 h, 50 µM was 90.9%. In addition, the Activity result in data set [1] is “Non-Toxic”.
As to `OC[C@H]1O[C@H](OCCCCc2cn(CCCCc3ccc(O)c(/C=N/O)n3)nn2)[C@H](O)[C@@H](O)[C@@H]1O`, the Activity result in data set [1] is on record as “Non-Toxic”.
Same read-out and setting: with `Cn1cc(CCO[C@@H]2O[C@H](CO)[C@@H](O)[C@H](O)[C@H]2O)nn1` the entry was “Non-Toxic”.
